Reference: paper PMC3555816, “A Lysine at the C-Terminus of an Odorant-Binding Protein is Involved in Binding Aldehyde Pheromone Components in Two Helicoverpa Species” (PLoS ONE, 2013)
Where two headings read alike, the source gives them in different places.

How the values were obtained:
HarmOBP7-wt [1] = target: T1, HarmOBP7-wt (Helicoverpa armigera, UniProt F5ANI5); assay: Competitive binding assay, displacement of 1-NPN from HarmOBP7-wt; settings: for Affinity to HarmOBP7 (in words): competitive binding with 1-NPN
T1 sequence (F5ANI5 entry or part of it): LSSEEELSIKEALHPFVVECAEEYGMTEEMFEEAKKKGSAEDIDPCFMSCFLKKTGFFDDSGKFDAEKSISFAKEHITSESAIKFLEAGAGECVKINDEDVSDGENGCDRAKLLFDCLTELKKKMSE
Description: (§1) Emission fluorescence spectra were recorded on a Hitachi F-4500 at 25°C in a right angle configuration, with a 1 cm light path quartz cuvette and 5 nm slits for both excitation and emission. The protein was dissolved in 50 mM Tris-HCl buffer, pH 7.4, while ligands were added as 1 mM methanol solutions.
The probe was excited at 337 nm and emission spectra were recorded between 380 and 450 nm. […] Dissociation constant for 1-NPN and the stoichiometry of binding was obtained by processing the data with Prism software.

HarmOBP7-m2 = HarmOBP7-m2 (Helicoverpa armigera, UniProt F5ANI5); assay: Fluorescence binding of 1-NPN to HarmOBP7-m2 (K123M); settings: read-out: Dissociation constant of 1-NPN; HarmOBP7-m2, 2 µM protein in Tris, pH 7.4, three replicates, SD 0.22
HarmOBP7-m2, sequence (F5ANI5 entry or part of it): as above
Description: as §1
(§2) The probe was excited at 337 nm and emission spectra were recorded between 380 and 450 nm. […] Dissociation constant for 1-NPN and the stoichiometry of binding was obtained by processing the data with Prism software. Dissociation constants of the competitors were calculated from the corresponding [IC]50 values (concentrations of ligands halving the initial fluorescence value of 1-NPN), using the equation: KD = [IC50]/1+[1-NPN]/K1-NPN, [1-NPN] being the free concentration of 1-NPN and K1-NPN being the dissociation constant of the complex protein/1-NPN.

HarmOBP7-wt [2] = target: T1, HarmOBP7-wt; assay: Fluorescence binding of 1-NPN to HarmOBP7-wt
Description: (§3) Emission fluorescence spectra were recorded on a Hitachi F-4500 at 25°C in a right angle configuration, with a 1 cm light path quartz cuvette and 5 nm slits for both excitation and emission. […]
as §2

HarmOBP7-m1 = target: T2, HarmOBP7-m1 (Helicoverpa armigera, UniProt F5ANI5); assay: Fluorescence binding of 1-NPN to HarmOBP7-m1 (lacks the last 6 residues)
T2 sequence (F5ANI5 22-142): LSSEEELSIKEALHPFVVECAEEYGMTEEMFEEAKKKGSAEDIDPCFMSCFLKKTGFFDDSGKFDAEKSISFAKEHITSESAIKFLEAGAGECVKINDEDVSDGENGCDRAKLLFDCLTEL
Description: as §3, §2

[3] = HarmOBP7-wt, 2 µM protein and 2 µM 1-NPN, pH 7.4, values larger than 16 extrapolated from the competitive binding curves, read-out: [IC]50
[4] = HarmOBP7-wt, 2 µM protein and 2 µM 1-NPN, pH 7.4, concentration of ligand halving initial 1-NPN fluorescence, read-out: [IC]50
[5] = HarmOBP7-wt, calculated from [IC]50: KD = [IC50]/1+[1-NPN]/K1-NPN, read-out: KD (calculated dissociation constant)

| SMILES | IC50 (HarmOBP7-wt [1]; [4]) | Kd (HarmOBP7-wt [1]; [5]) | further results |
| --- | --- | --- | --- |
| COC(=O)C=Cc1ccccc1 [Methyl cinnamate] |  |  | IC50 (HarmOBP7-wt [1]; [3]): > 16 µM |
| c1ccc(Nc2cccc3ccccc23)cc1 [1-NPN, N-phenyl-1-naphthylamine] |  |  | Kd (HarmOBP7-m2): 3.2 µM; Kd (HarmOBP7-wt [2]; 2 µM protein in Tris, pH 7.4, three replicates, SD 0.63, read-out: Dissociation constant of 1-NPN): 5.5 µM; Effect of pH on affinity of 1-NPN (in words) (HarmOBP7-wt [2]; pH range 3.5 to 9.5, basic conditions, no significant loss of binding down to pH 3.5): marked increase in affinity; Kd (HarmOBP7-m1; HarmOBP7-m1, 2 µM protein in Tris, pH 7.4, three replicates, SD 1.1, read-out: Dissociation constant of 1-NPN): 6.8 µM; Effect of pH on affinity of 1-NPN (in words) (HarmOBP7-m1; HarmOBP7-m1, pH range 3.5 to 9.5, basic conditions, no significant loss of binding down to pH 3.5): marked increase in affinity |
| CCCCCCCCCC(=O)OCC [Ethyl decanoate] |  |  | IC50 (HarmOBP7-wt [1]; [3]): > 16 µM |
| COc1ccccc1C=CC=O [2-Methoxycinnamaldehyde] | 14.7 µM | 11.1 µM |  |
| CCCCCCCCCCCC(C)=O [2-Tridecanone] | 9.6 µM | 7.3 µM |  |
| CCCCCCCCCCCCCCCCC=O [Heptadecanal] | 9.1 µM | 6.9 µM |  |
| CCCCCCCCCCCCOC(C)=O [Dodecyl acetate] | 5.2 µM | 3.9 µM |  |
| CCCCCCCCCCC(C)=O [2-Dodecanone] |  |  | IC50 (HarmOBP7-wt [1]; [3]): > 16 µM |
| CCCCOC(=O)/C=C/c1ccccc1 [Butyl cinnamate] | 9.6 µM | 7.3 µM |  |
| CCCCCCCCCCCCCCCO [1-Pentadecanol] |  |  | IC50 (HarmOBP7-wt [1]; [3]): > 25 µM |
| CCCCCCCCCCCCCO [1-Tridecanol] | 4.6 µM | 3.5 µM |  |
| COc1ccc(-c2ccccc2)cc1 [4-Phenylanisole] |  |  | IC50 (HarmOBP7-wt [1]; [3]): > 16 µM |
| CCCCCC/C=C\CCCCCCCC=O [Z-9-hexadecenal] |  |  | Affinity to HarmOBP7 (in words) (HarmOBP7-wt [1]; HarmOBP7-wt): good affinity |
| CCCCCCCCCCCCCCCC(=O)OCC [Ethyl palmitate] | 12.6 µM | 12.6 µM |  |
| CCCCCCCCCCCC=O [Dodecanal] | 10.3 µM | 7.8 µM |  |
| Cc1ccc2ccccc2c1 [2-Methylnaphthalene] |  |  | IC50 (HarmOBP7-wt [1]): > 16 µM |
| CCCCCCCCCCCCC=O [Tridecanal] | 4.9 µM | 3.7 µM |  |
| CCCCCCCCCCO [1-Decanol] |  |  | IC50 (HarmOBP7-wt [1]): > 16 µM |

| SMILES | IC50 (HarmOBP7-wt [1]; [4]) | Kd (HarmOBP7-wt [1]; [5]) | further results |
| --- | --- | --- | --- |
| CC(C)(C)c1ccc(C(=O)c2ccccc2)cc1 [p-tert-Butylbenzophenone] | 4.5 µM | 3.4 µM |  |
| CCCCOC(=O)c1ccc(C(C)(C)C)cc1 [Butyl p-tert-butyl benzoate] | 6.9 µM | 5.2 µM |  |
| CCCCCCCCCCCCCCO [1-Tetradecanol] |  |  | IC50 (HarmOBP7-wt [1]): 6.7 µM; Kd (HarmOBP7-wt [1]): 5.1 µM |
| COc1cc(CC(=O)O)ccc1O [Homovanillic acid] |  |  | IC50 (HarmOBP7-wt [1]): > 16 µM |
| CCCCCCCCCCCC(=O)OCC [Ethyl laurate] | 4.3 µM | 3.3 µM |  |
| O=C(O)/C=C/c1ccccc1 [Cinnamic acid] |  |  | IC50 (HarmOBP7-wt [1]): > 25 µM |
| COc1cc(/C=C/C=O)ccc1O [Coniferyl aldehyde] |  |  | IC50 (HarmOBP7-wt [1]): 12.7 µM; Kd (HarmOBP7-wt [1]): 9.6 µM |
| CCCCCCCCCCCCCC(=O)OCC [Ethyl myristate] | 4.7 µM | 3.5 µM |  |
| O=Cc1ccccc1 [Benzaldehyde] |  |  | IC50 (HarmOBP7-wt [1]): 10.8 µM; Kd (HarmOBP7-wt [1]): 8.2 µM |
| CCCC/C=C\CCCCCCCCCC=O [Z-11-hexadecenal] |  |  | Affinity to HarmOBP7 (in words) (HarmOBP7-wt [1]; HarmOBP7-wt): good affinity |
| CCCCCCCCCCCCCC=O [Tetradecanal] | 3.2 µM | 2.4 µM |  |
| CCCCC/C(C=O)=C/c1ccccc1 [α-Amylcinnamaldehyde] | 5.5 µM | 4.2 µM |  |
| CCCCCCCCCCCCCCCCO [1-Hexadecanol] |  |  | IC50 (HarmOBP7-wt [1]; [3]): > 16 µM |
| CCCCCCCCCCCCO [1-Dodecanol] |  |  | IC50 (HarmOBP7-wt [1]; [3]): > 25 µM |
| CC(C)CCCC(C)CCOC(=O)c1ccccc1 (stereo not shown) [3,7-Dimethyloctylbenzoate] | 3.5 µM | 2.7 µM |  |
| CC(C)c1ccc(C=O)cc1 [p-Isopropylbenzaldehyde] | 10.5 µM | 7.9 µM |  |
| CCCCCCCCCCC=O [Undecanal] | 10.7 µM | 8.1 µM |  |
| CCCCCCCCCCCCCCCCCCO [1-Octadecanol] |  |  | IC50 (HarmOBP7-wt [1]; [3]): > 25 µM |
